ChEMBL document CHEMBL2150989, “Effect of phospholipid-based formulations of Boswellia serrata extract on the solubility, permeability, and absorption of the individual boswellic acid constituents present” (J Nat Prod, 2012)
pIC50: −log10 of the molar value. Converted amounts (≈) assume the structure as drawn.

Tests used:
[1] = Ratio drug level in brain to plasma of rat at 240 mg/kg, po administered using compound, Lipoid S100 and pluronic f127 ratio 1:1:1 formulation after 8 hrs; assay type: ADME, organism-based; design: dose 240 mg/kg, route oral; details: read-out: BPR
Brain [2] = assay: Drug level in rat brain at 240 mg/kg, po; assay type: ADME, organism-based; design: dose 240 mg/kg, route oral; details: in vivo
Brain [3] = assay: Drug level in rat brain at 240 mg/kg, po administered using compound, Lipoid S100 and pluronic f127 ratio 1:1:1 formulation; assay type: ADME, organism-based; design: dose 240 mg/kg, route oral; details: in vivo
[4] = Ratio drug level in brain to plasma of rat at 240 mg/kg, po after 8 hrs; assay type: ADME, organism-based; design: dose 240 mg/kg, route oral; details: brain and plasma, read-out: BPR
Plasma [5] = assay: Plasma concentration in rat at 240 mg/kg, po administered using compound, Lipoid S100 and pluronic f127 ratio 1:1:1 formulation relative to non-formulated compound after 4 to 6 hrs; assay type: ADME, organism-based; design: dose 240 mg/kg, route oral; details: in vivo
Prostaglandin E synthase = target: T1, Prostaglandin E synthase (Homo sapiens, UniProt O14684); assay: Inhibition of mPGES1
T1 sequence (O14684 whole entry): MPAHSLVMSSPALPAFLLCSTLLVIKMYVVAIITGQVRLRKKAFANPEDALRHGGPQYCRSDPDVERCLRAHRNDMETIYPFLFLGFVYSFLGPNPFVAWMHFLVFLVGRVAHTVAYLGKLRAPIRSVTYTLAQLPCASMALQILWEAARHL

[6] = Permeability from apical to basolateral side of human Caco2 cells assessed as mass balance at 5 mg/mL; assay type: ADME, cell-based; details: Caco-2, read-out: permeability
[7] = Solubility of the compound in fasted state simulated intestinal fluid at compound to Lipoid S100 ratio 1:1 after 3 hrs by HPLC analysis in presence of 3:1 molar ratio of Lipoid S100 to tween 80; assay type: physicochemical
[8] = Solubility of the compound in fasted state simulated intestinal fluid at compound to Lipoid S100 ratio 1:3 after 3 hrs by HPLC analysis in presence of 5:1 molar ratio of Lipoid S100 to tween 80; assay type: physicochemical
[9] = Solubility of the compound in water at compound to Lipoid S100 ratio 1:3 after 3 hrs by HPLC analysis; assay type: physicochemical
[10] = Permeability from apical to basolateral side of human Caco2 cells assessed as mass balance at compound, Lipoid S100 and gelucire 44/14 ratio 1:1:1; assay type: ADME, cell-based; details: Caco-2, read-out: permeability
[11] = Apparent permeability from apical to basolateral side of human Caco2 cells at compound, Lipoid S100 and pluronic f127 ratio 1:1:1 using modified fasted state simulated intestinal fluid; assay type: ADME, cell-based; details: Caco-2
[12] = Permeability from apical to basolateral side of human Caco2 cells assessed as mass balance at compound, Lipoid S100 and pluronic f68 ratio 1:1:1; assay type: ADME, cell-based; details: Caco-2, read-out: permeability
[13] = Solubility of the compound in fasted state simulated intestinal fluid at compound to Lipoid S100 ratio 1:1 after 3 hrs by HPLC analysis in presence of 10:1 molar ratio of Lipoid S100 to tween 80; assay type: physicochemical
[14] = Permeability from apical to basolateral side of human Caco2 cells assessed as mass balance at compound to Lipoid S100 ratio 1:3 in presence of 5:1 molar ratio of Lipoid S100 to tween 80; assay type: ADME, cell-based; details: Caco-2, read-out: permeability
[15] = Solubility of the compound in fasted state simulated intestinal fluid at 5 mg/mL after 3 hrs by HPLC analysis; assay type: physicochemical
[16] = Apparent permeability from apical to basolateral side of human Caco2 cells at compound, Lipoid S100 and pluronic f127 ratio 1:1:1 using HBSS buffer; assay type: ADME, cell-based; details: Caco-2
Plasma [17] = assay: Plasma concentration in rat at 240 mg/kg, po administered using compound, Lipoid S100 and pluronic f127 ratio 1:1:1 formulation relative to non-formulated compound after 2 hrs; assay type: ADME, organism-based; design: dose 240 mg/kg, route oral; details: in vivo
[18] = Permeability from apical to basolateral side of human Caco2 cells assessed as mass balance at compound, Lipoid S100 and vitamin E-TPGS ratio 1:2:1; assay type: ADME, cell-based; details: Caco-2, read-out: permeability
[19] = Solubility of the compound in fed state simulated intestinal fluid at compound to Lipoid S100 ratio 1:1 after 3 hrs by HPLC analysis; assay type: physicochemical
[20] = Permeability from apical to basolateral side of human Caco2 cells assessed as mass balance at compound, Lipoid S100 and tween 80 ratio 1:1:1; assay type: ADME, cell-based; details: Caco-2, read-out: permeability
[21] = Solubility of the compound in water at 5 mg/mL after 3 hrs by HPLC analysis; assay type: physicochemical
[22] = Permeability from apical to basolateral side of human Caco2 cells assessed as mass balance at compound to Lipoid S100 ratio 1:3; assay type: ADME, cell-based; details: Caco-2, read-out: permeability
[23] = Solubility of the compound in water at pH 6.5; assay type: physicochemical
[24] = Solubility of the compound in fasted state simulated intestinal fluid at compound, Lipoid S100 and pluronic f127 ratio 1:1:1 after 3 hrs by HPLC analysis; assay type: physicochemical
[25] = Solubility of the compound in water at compound to Lipoid S100 ratio 1:1 after 3 hrs by HPLC analysis; assay type: physicochemical
Plasma [26] = assay: Plasma concentration in rat at 240 mg/kg, po administered using compound, Lipoid S100 and pluronic f127 ratio 1:1:1 formulation relative to non-formulated compound after 8 hrs; assay type: ADME, organism-based; design: dose 240 mg/kg, route oral; details: in vivo
[27] = Solubility of the compound in HBSS buffer containing 4% bovine serum albumin at 5 mg/mL after 3 hrs by HPLC analysis; assay type: physicochemical
[28] = Solubility of the compound in fed state simulated intestinal fluid at compound to Lipoid S100 ratio 1:3 after 3 hrs by HPLC analysis; assay type: physicochemical
[29] = Solubility of the compound in modified fasted state simulated intestinal fluid at 5 mg/mL after 3 hrs by HPLC analysis; assay type: physicochemical
[30] = Solubility of the compound in fasted state simulated intestinal fluid at compound to Lipoid S100 ratio 1:1 after 3 hrs by HPLC analysis in presence of 5:1 molar ratio of Lipoid S100 to tween 80; assay type: physicochemical
[31] = Solubility of the compound in fasted state simulated intestinal fluid at compound to Lipoid S100 ratio 1:3 after 3 hrs by HPLC analysis in presence of 3:1 molar ratio of Lipoid S100 to tween 80; assay type: physicochemical
[32] = Permeability from apical to basolateral side of human Caco2 cells assessed as mass balance at compound, Lipoid S100 and vitamin E-TPGS ratio 1:1:1; assay type: ADME, cell-based; details: Caco-2, read-out: permeability
[33] = Solubility of the compound in fasted state simulated intestinal fluid at compound to Lipoid S100 ratio 1:3 after 3 hrs by HPLC analysis in presence of 10:1 molar ratio of Lipoid S100 to tween 80; assay type: physicochemical
[34] = Permeability from apical to basolateral side of human Caco2 cells assessed as mass balance at compound, Lipoid S100 and pluronic f127 ratio 1:1:1; assay type: ADME, cell-based; details: Caco-2, read-out: permeability
[35] = Solubility of the compound in fasted state simulated intestinal fluid at compound to Lipoid S100 ratio 1:1 after 3 hrs by HPLC analysis; assay type: physicochemical
[36] = Solubility of the compound in fasted state simulated intestinal fluid at compound to Lipoid S100 ratio 1:3 after 3 hrs by HPLC analysis; assay type: physicochemical
[37] = Permeability from apical to basolateral side of human Caco2 cells assessed as mass balance at compound to Lipoid S100 ratio 1:1; assay type: ADME, cell-based; details: Caco-2, read-out: permeability
[38] = Apparent permeability from apical to basolateral side of human Caco2 cells at compound, Lipoid S100 and pluronic f127 ratio 1:1:1 using modified fed state simulated intestinal fluid; assay type: ADME, cell-based; details: Caco-2
Caco-2 = assay: Permeability from apical to basolateral side of human Caco2 cells at compound to Lipoid S100 ratio 1:3 in presence of 5:1 molar ratio of Lipoid S100 to tween 80; assay type: ADME, cell-based; details: BLD = below limit of detection
[39] = Solubility of the compound in fed state simulated intestinal fluid at 5 mg/mL after 3 hrs by HPLC analysis; assay type: physicochemical
Plasma [40] = assay: Plasma concentration in rat at 240 mg/kg, po administered using compound, Lipoid S100 and pluronic f127 ratio 1:1:1 formulation; assay type: ADME, organism-based; design: dose 240 mg/kg, route oral; details: in vivo

Kp at 8 h [1]	Drug uptake (Brain [2]) [ng/g]	Drug uptake (Brain [3]) [ng/g]	Kp at 8 h [4]	fold change (FC) (Plasma [5])	recovery at 5 mg/mL [6] [%]	solubility at 3 h [7] [µg/mL]	solubility at 3 h [8] [µg/mL]	solubility at 3 h [9] [µg/mL]	recovery [10] [%]	Papp A→B [11] [×10⁻⁶ cm/s]	recovery [12] [%]	solubility at 3 h [13] [µg/mL]	recovery [14] [%]	solubility at 3 h [15] [µg/mL]	Papp A→B [16] [×10⁻⁶ cm/s]	fold change (FC) (Plasma [17])	recovery [18] [%]	solubility at 3 h [19] [µg/mL]	recovery [20] [%]	Structure (SMILES)	also measured
4.4	485.1	2443.9	0.18	26	–	–	–	–	–	–	–	–	–	–	–	–	–	–	–	CC1(C)CC[C@]2(C)CC[C@]3(C)C(=CC[C@@H]4[C@@]5(C)CC[C@@H](O)[C@](C)(C(=O)O)[C@@H]5CC[C@]43C)[C@@H]2C1	–
5.5	1066.6	5908.2	0.2	26	–	–	–	–	–	–	–	–	–	–	–	–	–	–	–	C[C@H]1[C@H](C)CC[C@]2(C)CC[C@]3(C)C(=CC[C@@H]4[C@@]5(C)CC[C@@H](O)[C@](C)(C(=O)O)[C@@H]5CC[C@]43C)[C@H]12 [BOSWELLIC ACID]	pIC50 (Prostaglandin E synthase): 5.30
–	11.6	13.6	–	–	101	164	293	192	92	3.7	90.1	78.2	102	15.9 (≈ 33.8 µM)	2.9	26	99.8	252	96.3	C[C@H]1[C@H](C)CC[C@]2(C)CC[C@]3(C)C(=CC(=O)[C@@H]4[C@@]5(C)CC[C@@H](O)[C@](C)(C(=O)O)[C@@H]5CC[C@]43C)[C@H]12 [11-KETO BOSWELLIC ACID]	solubility at 3 h [21]: 1.16 µg/mL (≈ 2.46 µM); recovery [22]: 96%; solubility [23]: 73.1 µg/mL (≈ 155 µM); solubility at 3 h [24]: 395 µg/mL; solubility at 3 h [25]: 5.18 µg/mL; fold change (FC) (Plasma [26]): 6; solubility at 3 h [27]: 17.5 µg/mL (≈ 37.1 µM); solubility at 3 h [28]: 183 µg/mL; solubility at 3 h [29]: 17 µg/mL (≈ 36.1 µM); solubility at 3 h [30]: 109 µg/mL; solubility at 3 h [31]: 400 µg/mL; recovery [32]: 101%; solubility at 3 h [33]: 246 µg/mL; recovery [34]: 99.9%; solubility at 3 h [35]: 124 µg/mL; solubility at 3 h [36]: 151 µg/mL; recovery [37]: 93.9%; Papp A→B [38]: 3.2 ×10⁻⁶ cm/s; permeability (Caco-2): BLD; solubility at 3 h [39]: 73.1 µg/mL (≈ 155 µM)
2.2	37.5	203.8	0.07	–	95.2	27.6	59.5	51.4	90.7	3.1	87.8	13.4	104	3.05 (≈ 5.95 µM)	2.5	14	98	48	93.3	CC(=O)O[C@@H]1CC[C@@]2(C)[C@@H](CC[C@]3(C)[C@@H]2C(=O)C=C2[C@@H]4[C@@H](C)[C@H](C)CC[C@]4(C)CC[C@]23C)[C@@]1(C)C(=O)O [AKBA]	solubility at 3 h [21]: 0.2 µg/mL (≈ 0.39 µM); recovery [22]: 96.4%; solubility [23]: > 60 µg/mL; solubility at 3 h [24]: 65.3 µg/mL; solubility at 3 h [25]: 0.87 µg/mL; fold change (FC) (Plasma [26]): 6; concentration (Plasma [40]): 1700 nM; solubility at 3 h [28]: 35.8 µg/mL; solubility at 3 h [30]: 18.2 µg/mL; solubility at 3 h [31]: 69.5 µg/mL; recovery [32]: 98.8%; solubility at 3 h [33]: 44.7 µg/mL; recovery [34]: 101%; solubility at 3 h [35]: 24.2 µg/mL; solubility at 3 h [36]: 29.7 µg/mL; recovery [37]: 88.3%; Papp A→B [38]: 2.8 ×10⁻⁶ cm/s; permeability (Caco-2): BLD; solubility at 3 h [39]: 13.2 µg/mL (≈ 25.8 µM)
–	43	60.1	–	26	–	–	–	–	–	–	–	–	–	–	–	–	–	–	–	CC(=O)O[C@@H]1CC[C@@]2(C)[C@@H](CC[C@]3(C)[C@@H]2CC=C2[C@@H]4CC(C)(C)CC[C@]4(C)CC[C@]23C)[C@@]1(C)C(=O)O	–
–	163.7	156.1	–	26	–	–	–	–	–	–	–	–	–	–	–	–	–	–	–	CC(=O)O[C@@H]1CC[C@@]2(C)[C@@H](CC[C@]3(C)[C@@H]2CC=C2[C@@H]4[C@@H](C)[C@H](C)CC[C@]4(C)CC[C@]23C)[C@@]1(C)C(=O)O	–
